From PubChem BioAssay (NCI)
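How tested: cells in 96-well plates exposed to compound for 48 hours at five concentrations. Definition used: TGI = concentration required for complete inhibition of growth.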

Experiments:
Experiment in all cases: growth of human tumour cells (NCI), 48 h
SR leukemia = system: SR leukemia
HS 578T breast = system: HS 578T breast
HT29 colon = system: HT29 colon
PC-3 prostate = system: PC-3 prostate
MDA-MB-231 breast = system: MDA-MB-231 breast
SF-295 CNS = system: SF-295 CNS
NCI-H522 lung = system: NCI-H522 lung
K-562 leukemia = system: K-562 leukemia
HOP-62 NSCLC = system: HOP-62 NSCLC
OVCAR-4 ovarian = system: OVCAR-4 ovarian
SW-620 colon = system: SW-620 colon
LOX IMVI melanoma = system: LOX IMVI melanoma
U251 CNS = system: U251 CNS
HL-60(TB) leukemia = system: HL-60(TB) leukemia
MCF7 breast = system: MCF7 breast
MDA-N = system: MDA-N
RPMI-8226 leukemia = system: RPMI-8226 leukemia
BT-549 breast = system: BT-549 breast
SK-OV-3 ovarian = system: SK-OV-3 ovarian
UO-31 renal = system: UO-31 renal
HCT-116 colon = system: HCT-116 colon
SK-MEL-5 melanoma = system: SK-MEL-5 melanoma
NCI-H460 lung = system: NCI-H460 lung
HCT-15 colon = system: HCT-15 colon
COLO 205 colon = system: COLO 205 colon
SF-539 CNS = system: SF-539 CNS
M14 melanoma = system: M14 melanoma
SK-MEL-2 melanoma = system: SK-MEL-2 melanoma
MOLT-4 leukemia = system: MOLT-4 leukemia
OVCAR-5 ovarian = system: OVCAR-5 ovarian
DU-145 prostate = system: DU-145 prostate
A549 NSCLC = system: A549 NSCLC
SF-268 CNS = system: SF-268 CNS
SNB-19 CNS = system: SNB-19 CNS
OVCAR-8 ovarian = system: OVCAR-8 ovarian
UACC-62 melanoma = system: UACC-62 melanoma
CAKI-1 renal = system: CAKI-1 renal
OVCAR-3 ovarian = system: OVCAR-3 ovarian
RXF 393 renal = system: RXF 393 renal
786-0 renal = system: 786-0 renal
MALME-3M melanoma = system: MALME-3M melanoma
HOP-92 NSCLC = system: HOP-92 NSCLC
KM12 colon = system: KM12 colon
IGROV1 ovarian = system: IGROV1 ovarian
SK-MEL-28 melanoma = system: SK-MEL-28 melanoma
CCRF-CEM leukemia = system: CCRF-CEM leukemia
NCI/ADR-RES ovarian = system: NCI/ADR-RES ovarian
A498 renal = system: A498 renal
NCI-H23 lung = system: NCI-H23 lung
EKVX NSCLC = system: EKVX NSCLC
TK-10 renal = system: TK-10 renal
SN12C renal = system: SN12C renal
T-47D breast = system: T-47D breast
UACC-257 melanoma = system: UACC-257 melanoma
MDA-MB-435 = system: MDA-MB-435
HCC-2998 colon = system: HCC-2998 colon
ACHN renal = system: ACHN renal
NCI-H226 lung = system: NCI-H226 lung
SNB-75 CNS = system: SNB-75 CNS

Measured: TGI

O=C(/C=C/c1cc2ccccc2o1)N1CCN(c2ccccn2)CC1
not listed: ACHN renal | NCI-H226 lung | SNB-75 CNS
> 100 µM: all other assays above

CC#CCOC(=O)c1ccccc1OC(C)=O
not listed: HT29 colon | A549 NSCLC | OVCAR-3 ovarian | MALME-3M melanoma | SK-MEL-28 melanoma
> 100 µM: all other assays above
